Source: PubChem BioAssay (NCI)
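A five-concentration, 48-hour dose response in 96-well plates underlies each endpoint, interpolated linearly between surrounding concentrations. GI50 marks 50% less growth. TGI: concentration producing complete growth inhibition.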

Assays:
Assay in all cases: NCI anticancer screen, dose series, 48 h
NCI-H23 lung = test system: NCI-H23 lung
UACC-62 melanoma = test system: UACC-62 melanoma
MCF7 breast = test system: MCF7 breast
MOLT-4 leukemia = test system: MOLT-4 leukemia
NCI-H522 lung = test system: NCI-H522 lung
HOP-62 NSCLC = test system: HOP-62 NSCLC
SK-MEL-2 melanoma = test system: SK-MEL-2 melanoma
IGROV1 ovarian = test system: IGROV1 ovarian
SN12C renal = test system: SN12C renal
UO-31 renal = test system: UO-31 renal
HL-60(TB) leukemia = test system: HL-60(TB) leukemia
A549 NSCLC = test system: A549 NSCLC
NCI/ADR-RES ovarian = test system: NCI/ADR-RES ovarian
MDA-MB-231 breast = test system: MDA-MB-231 breast
M14 melanoma = test system: M14 melanoma
LOX IMVI melanoma = test system: LOX IMVI melanoma
OVCAR-8 ovarian = test system: OVCAR-8 ovarian
SK-OV-3 ovarian = test system: SK-OV-3 ovarian
SW-620 colon = test system: SW-620 colon
BT-549 breast = test system: BT-549 breast
SR leukemia = test system: SR leukemia
EKVX NSCLC = test system: EKVX NSCLC
CAKI-1 renal = test system: CAKI-1 renal
HCC-2998 colon = test system: HCC-2998 colon
NCI-H226 lung = test system: NCI-H226 lung
SNB-19 CNS = test system: SNB-19 CNS
UACC-257 melanoma = test system: UACC-257 melanoma
OVCAR-4 ovarian = test system: OVCAR-4 ovarian
HOP-92 NSCLC = test system: HOP-92 NSCLC
RPMI-8226 leukemia = test system: RPMI-8226 leukemia
SK-MEL-28 melanoma = test system: SK-MEL-28 melanoma
OVCAR-3 ovarian = test system: OVCAR-3 ovarian
OVCAR-5 ovarian = test system: OVCAR-5 ovarian
NCI-H460 lung = test system: NCI-H460 lung
SF-539 CNS = test system: SF-539 CNS
SF-268 CNS = test system: SF-268 CNS
K-562 leukemia = test system: K-562 leukemia
U251 CNS = test system: U251 CNS
CCRF-CEM leukemia = test system: CCRF-CEM leukemia
ACHN renal = test system: ACHN renal
MDA-MB-435 = test system: MDA-MB-435
TK-10 renal = test system: TK-10 renal
SK-MEL-5 melanoma = test system: SK-MEL-5 melanoma
KM12 colon = test system: KM12 colon
HCT-15 colon = test system: HCT-15 colon
786-0 renal = test system: 786-0 renal
SF-295 CNS = test system: SF-295 CNS
RXF 393 renal = test system: RXF 393 renal
PC-3 prostate = test system: PC-3 prostate
HS 578T breast = test system: HS 578T breast
COLO 205 colon = test system: COLO 205 colon
DU-145 prostate = test system: DU-145 prostate
HCT-116 colon = test system: HCT-116 colon

Cc1cc(S(=O)(=O)/N=C/N(C)C)c(SC(=O)c2ccc(Cl)cc2)cc1Cl
GI50 (NCI-H23 lung): 23.2 µM
TGI (NCI-H23 lung): 56.2 µM
GI50 (UACC-62 melanoma): 29.9 µM
TGI (UACC-62 melanoma): > 100 µM
GI50 (MCF7 breast): 37.1 µM
TGI (MCF7 breast): > 100 µM
GI50 (MOLT-4 leukemia): 61 µM
TGI (MOLT-4 leukemia): > 100 µM
GI50 (NCI-H522 lung): 47.9 µM
TGI (NCI-H522 lung): > 100 µM
GI50 (HOP-62 NSCLC): 41.8 µM
TGI (HOP-62 NSCLC): > 100 µM
GI50 (SK-MEL-2 melanoma): 45.8 µM
TGI (SK-MEL-2 melanoma): > 100 µM
GI50 (IGROV1 ovarian): 38.5 µM
TGI (IGROV1 ovarian): > 100 µM
GI50 (SN12C renal): 26.8 µM
TGI (SN12C renal): 79.8 µM
GI50 (UO-31 renal): > 100 µM
TGI (UO-31 renal): > 100 µM
GI50 (HL-60(TB) leukemia): 42.5 µM
TGI (HL-60(TB) leukemia): > 100 µM
GI50 (A549 NSCLC): 34.1 µM
TGI (A549 NSCLC): 85.2 µM
GI50 (NCI/ADR-RES ovarian): 28.4 µM
TGI (NCI/ADR-RES ovarian): 72.2 µM
GI50 (MDA-MB-231 breast): 25.8 µM
TGI (MDA-MB-231 breast): 69.9 µM
GI50 (M14 melanoma): 89.8 µM
TGI (M14 melanoma): > 100 µM
GI50 (LOX IMVI melanoma): 19.1 µM
TGI (LOX IMVI melanoma): 35.2 µM
GI50 (OVCAR-8 ovarian): 40.9 µM
TGI (OVCAR-8 ovarian): > 100 µM
GI50 (SK-OV-3 ovarian): > 100 µM
TGI (SK-OV-3 ovarian): > 100 µM
GI50 (SW-620 colon): 27.6 µM
TGI (SW-620 colon): 72.3 µM
GI50 (BT-549 breast): 18.7 µM
TGI (BT-549 breast): 50.4 µM
GI50 (SR leukemia): 44.6 µM
TGI (SR leukemia): > 100 µM
GI50 (EKVX NSCLC): 17.4 µM
TGI (EKVX NSCLC): 51.1 µM
GI50 (CAKI-1 renal): 36.6 µM
TGI (CAKI-1 renal): 92.3 µM
GI50 (HCC-2998 colon): 17.9 µM
TGI (HCC-2998 colon): 38.2 µM
GI50 (NCI-H226 lung): 27.8 µM
TGI (NCI-H226 lung): 87.2 µM
GI50 (SNB-19 CNS): 53.8 µM
TGI (SNB-19 CNS): > 100 µM
GI50 (UACC-257 melanoma): > 100 µM
TGI (UACC-257 melanoma): > 100 µM
GI50 (OVCAR-4 ovarian): 60.1 µM
TGI (OVCAR-4 ovarian): > 100 µM
GI50 (HOP-92 NSCLC): 28.9 µM
TGI (HOP-92 NSCLC): > 100 µM
GI50 (RPMI-8226 leukemia): 25.4 µM
TGI (RPMI-8226 leukemia): 80.6 µM
GI50 (SK-MEL-28 melanoma): 48.9 µM
TGI (SK-MEL-28 melanoma): > 100 µM
GI50 (OVCAR-3 ovarian): 33.3 µM
TGI (OVCAR-3 ovarian): 91.1 µM
GI50 (OVCAR-5 ovarian): 48.6 µM
TGI (OVCAR-5 ovarian): > 100 µM
GI50 (NCI-H460 lung): 56.5 µM
TGI (NCI-H460 lung): > 100 µM
GI50 (SF-539 CNS): 26.7 µM
TGI (SF-539 CNS): 52.1 µM
GI50 (SF-268 CNS): 50.8 µM
TGI (SF-268 CNS): > 100 µM
GI50 (K-562 leukemia): 46.5 µM
TGI (K-562 leukemia): > 100 µM
GI50 (U251 CNS): 27 µM
TGI (U251 CNS): 71.1 µM
GI50 (CCRF-CEM leukemia): 32.4 µM
TGI (CCRF-CEM leukemia): > 100 µM
GI50 (ACHN renal): 22.7 µM
TGI (ACHN renal): 47.1 µM
GI50 (MDA-MB-435): 25.1 µM
TGI (MDA-MB-435): 70.4 µM
GI50 (TK-10 renal): 28.2 µM
TGI (TK-10 renal): 80.7 µM
GI50 (SK-MEL-5 melanoma): 10.8 µM
TGI (SK-MEL-5 melanoma): 36.5 µM
GI50 (KM12 colon): 39.1 µM
TGI (KM12 colon): > 100 µM
GI50 (HCT-15 colon): 19.2 µM
TGI (HCT-15 colon): 37 µM
GI50 (786-0 renal): 23.8 µM
TGI (786-0 renal): 67.2 µM
GI50 (SF-295 CNS): 50.9 µM
TGI (SF-295 CNS): > 100 µM
GI50 (RXF 393 renal): 11.5 µM
TGI (RXF 393 renal): 35.7 µM
GI50 (PC-3 prostate): 27.6 µM
TGI (PC-3 prostate): 90.8 µM
GI50 (HS 578T breast): 20.7 µM
TGI (HS 578T breast): 65 µM
GI50 (COLO 205 colon): 55.9 µM
TGI (COLO 205 colon): > 100 µM
GI50 (DU-145 prostate): 19.1 µM
TGI (DU-145 prostate): > 100 µM
GI50 (HCT-116 colon): 24.1 µM
TGI (HCT-116 colon): 59.3 µM
